Values quoted from earlier work in patent US8092783B2, “Gadolinium containing prussian blue nanoparticles as nontoxic MRI contrast agents having high relaxivity” (Kent State University, priority 2009, dated 2012).

Conditions: magnetic field strength 1.5 Tesla; commercial or literature agents

SMILES: CNC[C@H](O)[C@@H](O)[C@H](O)[C@H](O)CO.CNC[C@H](O)[C@@H](O)[C@H](O)[C@H](O)CO.O=C([O-])CN(CCN(CC(=O)[O-])CC(=O)O)CCN(CC(=O)[O-])CC(=O)O.[Gd+3] [Magnevist@]
- relaxivity r1: 4.1 mM⁻¹ s⁻¹
